Laboratory results taken from ChEMBL document CHEMBL1201862, “PubChem BioAssay data set” (2004).
Activity calls are given as the source filed them. For most assays here, no stated cut-off is given here; in the data, actives have a measured EC50 and inactives only a lower limit.

Columns and labels:
[1] = system: Streptococcus; assay: Group A Streptococcus viability loss, dose response, counter-screen for streptokinase expression inhibitor project, luminescence, BacTiterGlo (AID 1915); assay type: functional, organism-based;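 further: potency for reduction of bacterial viability or growth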
[2] = system: Streptococcus sp. 'group A'; assay: growth inhibition of control SK(-) GAS strain, dose response, counter-screen for streptokinase expression inhibitor project, luminescence, kanamycin, BacTiterGlo, confirmation (AID 1900); assay type: functional, organism-based
[3] = target: T1, Streptokinase A (Streptococcus pyogenes serotype M1, UniProt P10520); assay: S. pyogenes streptokinase expression inhibitors, potency, dose response, plasminogen activation absorbance, OD405 (AID 1914); assay type: functional, Streptococcus pyogenes M1 GAS;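 further: secreted streptokinase activity via plasminogen activation per viability signal from cell pellet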
T1 sequence (P10520 whole entry): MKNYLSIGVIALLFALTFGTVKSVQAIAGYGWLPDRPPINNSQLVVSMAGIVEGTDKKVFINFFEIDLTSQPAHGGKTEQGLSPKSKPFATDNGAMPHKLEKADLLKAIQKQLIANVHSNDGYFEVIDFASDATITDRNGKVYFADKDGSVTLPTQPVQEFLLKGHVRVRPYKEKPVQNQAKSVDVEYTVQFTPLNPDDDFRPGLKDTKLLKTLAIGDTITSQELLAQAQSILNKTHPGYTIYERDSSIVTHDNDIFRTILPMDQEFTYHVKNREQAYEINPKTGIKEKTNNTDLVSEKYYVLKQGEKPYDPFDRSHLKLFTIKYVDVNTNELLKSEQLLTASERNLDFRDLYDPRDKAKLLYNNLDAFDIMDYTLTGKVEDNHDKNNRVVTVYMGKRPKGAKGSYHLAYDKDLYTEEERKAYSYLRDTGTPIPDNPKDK

[4] = target: Cytochrome P450 2D6 (Homo sapiens, UniProt P10635);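 further: CYP2D6 member of a cytochrome P450 panel assay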
Sequence of Cytochrome P450 2D6 (P10635 whole entry): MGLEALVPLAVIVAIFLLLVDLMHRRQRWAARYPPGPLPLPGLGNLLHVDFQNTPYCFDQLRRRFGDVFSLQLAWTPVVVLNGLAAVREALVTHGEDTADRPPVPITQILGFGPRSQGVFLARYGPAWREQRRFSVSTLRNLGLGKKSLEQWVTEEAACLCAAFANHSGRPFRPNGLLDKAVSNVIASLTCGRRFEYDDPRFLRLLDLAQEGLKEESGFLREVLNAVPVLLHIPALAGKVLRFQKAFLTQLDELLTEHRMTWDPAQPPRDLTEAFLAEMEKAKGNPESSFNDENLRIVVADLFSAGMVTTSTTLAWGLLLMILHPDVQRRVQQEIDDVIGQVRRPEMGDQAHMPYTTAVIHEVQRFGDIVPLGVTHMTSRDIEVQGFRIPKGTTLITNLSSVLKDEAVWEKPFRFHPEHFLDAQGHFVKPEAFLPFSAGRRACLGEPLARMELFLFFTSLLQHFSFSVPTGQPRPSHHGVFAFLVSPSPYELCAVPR

[5] = system: H4; assay: Luminescence Cell-Based Dose Response HTS to Identify Activators of 5'UTR Stem-Loop Driven Prion Protein mRNA Translation in H4 Neuroglioblastoma Cells. [Related pubchem assays: 1829 (Project Summary), 1814 (Primary HTS)]; assay type: functional; conditions: Homo sapiens
[6] = Luminescence Cell-Based Dose Confirmation HTS to Identify Activators of 5'UTR Stem-Loop Driven Alpha-Synuclein mRNA Translation in H4 Neuroglioblastoma Cells. [Related pubchem assays: 1829 (Project Summary), 1814 (Primary HTS)]; assay type: functional
[7] = Luminescence Cell-Based Dose Response HTS to Identify Activators of Luciferase Translation or Activity in H4 […] Cells. [Related pubchem assays: 1829 (Project Summary), 1814 (Primary HTS)]; assay type: functional
[8] = Luminescence Cell-Based Dose Retest to Confirm Inhibitors of Cancer Stem Cells. [Related pubchem assays (depositor defined):AID2717, AID2721]; assay type: functional; conditions: Homo sapiens
[9] = target: T2, Zinc finger protein mex-5 (Caenorhabditis elegans, UniProt Q9XUB2); assay: MEX-5/TCR-2 RNA interaction inhibitors, dose response, biochemical, C. elegans, fluorescence polarization (AID 1960)
T2 sequence (Q9XUB2 whole entry): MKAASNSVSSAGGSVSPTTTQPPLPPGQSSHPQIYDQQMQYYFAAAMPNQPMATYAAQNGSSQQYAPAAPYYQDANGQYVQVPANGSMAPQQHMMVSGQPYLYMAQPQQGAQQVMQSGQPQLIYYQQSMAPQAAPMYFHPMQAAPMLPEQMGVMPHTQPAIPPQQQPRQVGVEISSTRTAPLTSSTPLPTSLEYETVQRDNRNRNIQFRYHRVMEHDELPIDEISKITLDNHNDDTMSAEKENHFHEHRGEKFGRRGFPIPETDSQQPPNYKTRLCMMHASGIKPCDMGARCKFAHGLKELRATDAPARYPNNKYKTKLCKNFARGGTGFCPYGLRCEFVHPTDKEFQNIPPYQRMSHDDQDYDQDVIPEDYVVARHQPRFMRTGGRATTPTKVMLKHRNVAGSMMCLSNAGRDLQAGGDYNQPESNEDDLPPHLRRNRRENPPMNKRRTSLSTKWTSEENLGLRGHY

[10] = target: T3, RNA-binding protein pos-1 (Caenorhabditis elegans, UniProt G5EF15); assay: inhibitors of POS-1/mex-3 RNA binding, dose response, biochemical, fluorescence polarization (AID 1964);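 further: purified POS-1 fused to maltose binding protein made in E. coli; potency of compounds blocking POS-1 binding to fluorescent RNA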
T3 sequence (G5EF15 whole entry): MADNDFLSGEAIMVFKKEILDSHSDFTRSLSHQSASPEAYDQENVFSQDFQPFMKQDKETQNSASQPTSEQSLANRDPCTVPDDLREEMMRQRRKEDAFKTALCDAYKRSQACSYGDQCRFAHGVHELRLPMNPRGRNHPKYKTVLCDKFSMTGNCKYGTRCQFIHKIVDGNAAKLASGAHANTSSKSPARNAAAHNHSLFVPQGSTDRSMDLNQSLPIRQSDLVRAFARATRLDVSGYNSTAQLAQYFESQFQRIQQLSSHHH

[11] = target: Luciferin 4-monooxygenase (Photinus pyralis, UniProt P08659); assay: firefly luciferase enzyme inhibitors, dose response, biochemical, luminescence (AID 1891)
Sequence of Luciferin 4-monooxygenase (P08659 whole entry): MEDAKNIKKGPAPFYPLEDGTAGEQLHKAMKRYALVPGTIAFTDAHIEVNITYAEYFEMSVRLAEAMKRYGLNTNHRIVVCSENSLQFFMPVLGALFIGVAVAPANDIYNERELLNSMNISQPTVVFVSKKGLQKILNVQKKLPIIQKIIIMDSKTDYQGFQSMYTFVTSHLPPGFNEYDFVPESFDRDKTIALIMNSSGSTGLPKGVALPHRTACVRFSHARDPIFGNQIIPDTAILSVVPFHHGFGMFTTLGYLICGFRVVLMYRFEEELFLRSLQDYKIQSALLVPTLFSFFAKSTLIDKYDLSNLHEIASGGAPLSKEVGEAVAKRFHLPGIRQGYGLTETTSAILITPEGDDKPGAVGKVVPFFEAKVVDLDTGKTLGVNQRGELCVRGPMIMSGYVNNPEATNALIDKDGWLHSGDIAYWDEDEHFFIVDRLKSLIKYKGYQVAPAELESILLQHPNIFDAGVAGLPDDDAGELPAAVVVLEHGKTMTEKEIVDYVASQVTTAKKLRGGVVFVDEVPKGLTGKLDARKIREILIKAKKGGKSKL

[12] = Luminescence Cell-Based Dose Confirmation HTS to Identify Inhibitors of Platelet Dense Granule Release. [Related pubchem assays: 1663 (Primary HTS), 1678 (Summary of Project)]; assay type: functional
[13] = target: T4, Rac GTPase-activating protein 1 (Homo sapiens, UniProt Q9H0H5); assay: MgcRacGAP GTPase-activating activity inhibitors, confirmation, biochemical, ADP Hunter fluorescence, primary and confirmatory (AID 624330); assay type: functional
T4 sequence (Q9H0H5 whole entry): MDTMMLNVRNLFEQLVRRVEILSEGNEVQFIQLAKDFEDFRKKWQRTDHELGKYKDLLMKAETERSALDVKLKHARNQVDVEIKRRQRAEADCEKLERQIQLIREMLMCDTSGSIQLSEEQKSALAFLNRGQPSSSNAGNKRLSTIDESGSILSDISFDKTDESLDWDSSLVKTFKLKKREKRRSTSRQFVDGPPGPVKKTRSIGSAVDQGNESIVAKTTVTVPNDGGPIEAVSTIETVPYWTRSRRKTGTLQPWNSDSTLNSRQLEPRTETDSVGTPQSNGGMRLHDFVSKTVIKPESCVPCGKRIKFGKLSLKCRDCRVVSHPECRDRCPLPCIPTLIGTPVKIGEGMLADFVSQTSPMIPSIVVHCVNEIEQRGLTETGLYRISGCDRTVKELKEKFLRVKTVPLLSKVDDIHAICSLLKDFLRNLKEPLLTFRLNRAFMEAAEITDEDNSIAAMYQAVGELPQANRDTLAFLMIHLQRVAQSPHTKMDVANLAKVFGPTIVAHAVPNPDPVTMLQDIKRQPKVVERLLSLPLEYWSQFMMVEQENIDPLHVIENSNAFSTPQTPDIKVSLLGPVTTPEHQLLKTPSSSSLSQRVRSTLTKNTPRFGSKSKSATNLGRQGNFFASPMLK

[14] = system: INS1; assay: beta cell apoptosis inhibitors, cytokine rescue, dose response, luminescence, retest (AID 449756); assay type: functional, cell-based; conditions: Rattus norvegicus;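 further: cell death triggered by IL-1 beta plus TNF-alpha plus IFN-gamma mixture; protective hits raise ATP signal compared with cytokine alone wells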
[15] = target: Cytochrome P450 2C9 (Homo sapiens, UniProt P11712)
Sequence of Cytochrome P450 2C9 (P11712 whole entry): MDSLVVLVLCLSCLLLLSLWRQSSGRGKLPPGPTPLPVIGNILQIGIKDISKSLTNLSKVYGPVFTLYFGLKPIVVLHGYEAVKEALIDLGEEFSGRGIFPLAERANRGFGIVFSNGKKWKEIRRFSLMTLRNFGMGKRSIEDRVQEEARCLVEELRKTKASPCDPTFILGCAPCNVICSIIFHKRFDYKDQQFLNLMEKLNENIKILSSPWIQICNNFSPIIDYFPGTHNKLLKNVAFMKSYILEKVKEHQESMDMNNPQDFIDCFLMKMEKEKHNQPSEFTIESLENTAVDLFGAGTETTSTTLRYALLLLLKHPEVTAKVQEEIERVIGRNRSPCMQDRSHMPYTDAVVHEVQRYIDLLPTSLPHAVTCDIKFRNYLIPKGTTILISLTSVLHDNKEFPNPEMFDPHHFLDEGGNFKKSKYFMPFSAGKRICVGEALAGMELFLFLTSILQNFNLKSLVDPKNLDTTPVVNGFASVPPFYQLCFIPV

[16] = target: T5, Heat shock factor protein 1 (Mus musculus, UniProt P38532); assay: inhibition of MG132-induced HSE-luciferase signal, confirmation, cell-based, NIH3T3, luminescence, dose retest (AID 2382); assay type: functional;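 further: NIH3T3 fibroblasts with HSF1-driven luciferase reporter stressed by proteasome inhibitor MG132; luminescence from HSF1-driven luciferase expression after 8 hours of MG132 stress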
T5 sequence (P38532 whole entry): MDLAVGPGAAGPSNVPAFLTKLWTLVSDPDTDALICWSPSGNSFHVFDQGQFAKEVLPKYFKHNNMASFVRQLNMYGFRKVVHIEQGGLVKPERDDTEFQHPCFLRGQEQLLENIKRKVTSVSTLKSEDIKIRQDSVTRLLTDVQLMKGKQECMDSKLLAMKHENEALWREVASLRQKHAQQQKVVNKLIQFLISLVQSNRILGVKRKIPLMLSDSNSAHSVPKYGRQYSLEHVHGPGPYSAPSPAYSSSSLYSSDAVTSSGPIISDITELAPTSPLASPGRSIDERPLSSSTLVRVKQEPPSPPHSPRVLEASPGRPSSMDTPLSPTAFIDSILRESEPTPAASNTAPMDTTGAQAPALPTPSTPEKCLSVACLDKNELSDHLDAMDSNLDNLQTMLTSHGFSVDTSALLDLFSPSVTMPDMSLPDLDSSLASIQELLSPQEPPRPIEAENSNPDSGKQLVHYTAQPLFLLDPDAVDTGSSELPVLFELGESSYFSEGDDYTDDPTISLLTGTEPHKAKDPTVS

[17] = inhibitors of intracellular T. cruzi replication, confirmation, NIH3T3 host cells, beta-gal luminescence (AID 2044); assay type: functional, cell-based;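 further: intracellular parasites grown in NIH/3T3 mouse fibroblasts as host cells; luminescent beta-galactosidase reporter signal from transgenic T. cruzi replicating inside host cells; inhibitors lower the luminescence signal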
[18] = cytotoxicity toward NIH3T3 fibroblasts, dose response, counter-screen, cell-based, ATP luminescence, mouse fibroblasts (AID 2010); assay type: functional;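 further: cells exposed to compound for about 90 hours before reading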

| Compound | EC50 [1] | EC50 [2] | EC50 [3] | EC50 [5] | EC50 [6] | EC50 [7] | further results |
| --- | --- | --- | --- | --- | --- | --- | --- |
| Cc1ccc2cc(CN(Cc3cccs3)C(=O)c3ccco3)c3nnnn3c2c1C | 31.7 µM (active) | 2.28 µM (active) | > 150 µM (not active) |  |  |  |  |
| CCc1sc(N(C(=O)Cc2ccccc2)c2ccc(F)cc2)nc1-c1ccccc1 | > 150 µM (not active) | > 150 µM (not active) | 11.8 µM (active) |  |  |  |  |
| CN(C)c1ncc2nc(CCc3ccccc3)c(=O)n(Cc3cccs3)c2n1 |  |  |  |  |  |  | AC50 [4]: 25.1 µM (inconclusive) |
| O=C(C1CCCN(c2ncnc3c2nc2n3CCCCC2)C1)N1CCN(c2ccccc2)CC1 (configuration not stated) |  |  |  | > 120 µM (not active) | > 120 µM (not active) | > 120 µM (not active) |  |
| CC(C)[C@@H]1COC(c2cccc(C3=N[C@H](C(C)C)CO3)c2)=N1 |  |  |  | 10.6 µM (active) | > 120 µM (not active) | 71.1 µM (active) |  |
| CC(C)(C)c1cc(C(=O)NNc2cc(C(F)(F)F)ccc2Cl)n(Cc2ccccc2)n1 | 8.74 µM (active) | 3.24 µM (active) | > 150 µM (not active) |  |  |  | AC50 [8]: 3.81 µM (active) |
| COc1cc2c(cc1NC(=O)CN1CCN(S(=O)(=O)c3ccccc3F)CC1)oc1ccccc12 |  |  |  | > 120 µM (not active) | > 120 µM (not active) | > 120 µM (not active) |  |
| O=C(c1ccc(F)cc1)N1CCN(C2CCC(c3ccccc3)CC2)CC1 (configuration not stated) |  |  |  |  |  |  | EC50 [9]: > 300 µM (not active); EC50 [10]: > 300 µM (not active) |
| Nc1c(Cl)ncnc1N/N=C/c1ccc(O)cc1 |  |  |  |  |  |  | EC50 [11]: 7.55 µM (active); EC50 [12]: 0.779 µM (active); IC50 [13]: 16.5 µM (active) |
| Cc1ccc(O)c(/C=N/NC(=O)Cc2ccc(Cl)cc2)c1 | 13.6 µM (active) | 3.25 µM (active) | > 150 µM (not active) |  |  |  |  |
| Cc1cccc(NC(S)=Nc2ccc3c[nH]nc3c2)c1 |  |  |  |  |  |  | EC50 [11]: > 112 µM (not active); AC50 [14]: > 260 µM (inactive); EC50 [12]: > 112 µM (not active) |
| CC(C)C(C(=O)Nc1nccs1)c1ccc(Cl)cc1 (configuration not stated) | > 150 µM (not active) | 12.7 µM (active) | > 150 µM (not active) |  |  |  |  |
| C=CCOc1c(Cl)cc(C(=S)N2CCCC2)cc1OCC |  |  |  | 30.3 µM (active) | > 120 µM (not active) | > 120 µM (not active) |  |
| COC(=O)/C(C#N)=C/c1c(Oc2cc(C)cc(C)c2)nc2c(C)cccn2c1=O |  |  |  |  |  |  | EC50 [9]: > 300 µM (not active); EC50 [10]: 104 µM (active) |
| CCc1ccc2[nH]c(O)c(N=Nc3nc(-c4ccccc4)cs3)c2c1 | 27.3 µM (active) | 9.51 µM (active) | > 150 µM (not active) |  |  |  | AC50 [15]: 39.8 µM (inconclusive); EC50 [16]: > 195 µM (not active) |
| Cc1cc(C(=O)COC(=O)Cc2nnc(O)c3ccccc23)c(C)n1-c1ccc2c(c1)OCCO2 |  |  |  | 71.5 µM (active) | > 120 µM (not active) | > 120 µM (not active) | EC50 [17]: 2.28 µM (active); EC50 [18]: > 60 µM (not active) |
| CC(C)C[C@H](NC(=O)N1CC(=O)Nc2ccccc21)C(=O)N[C@H](C(=O)O)c1ccccc1 | > 150 µM (not active) | > 150 µM (not active) | > 150 µM (not active) |  |  |  |  |
| COCCNC(=O)C1Nc2ccc(OC(F)(F)F)cc2C2C=CCC12 (configuration not stated) |  |  |  |  |  |  | EC50 [9]: > 300 µM (not active); EC50 [10]: > 300 µM (not active) |
| Oc1nc(CN2CCN(C/C=C/c3ccccc3)CC2)nc2ccccc12 |  |  |  | > 120 µM (not active) | > 120 µM (not active) | > 120 µM (not active) | EC50 [17]: 0.637 µM (active); EC50 [18]: > 60 µM (not active) |
| COc1ccc(NC(=O)CCl)cn1 |  |  |  |  |  |  | EC50 [9]: 8.06 µM (active); EC50 [10]: 9.67 µM (active) |
| Clc1ccc(N2COC3c4cccc5cccc(c45)C32)cc1 (configuration not stated) | > 150 µM (not active) | 17.4 µM (active) | 14.2 µM (active) |  |  |  |  |
| COc1cc(/C=N/c2oc(-c3ccccc3)cc2C#N)ccc1O |  |  |  |  |  |  | EC50 [9]: > 300 µM (not active); EC50 [10]: > 300 µM (not active) |
| CC1Cc2nc(SCC(=O)Nc3ccc4c(c3)OCO4)n(Cc3ccccc3)c(=O)c2S1 (configuration not stated) |  |  |  | 13.2 µM (active) | 10.8 µM (active) | 5.9 µM (active) |  |
| c1ccn2c(c1)nc1c2nc2ccccn21 |  |  |  | > 120 µM (not active) | 7.67 µM (active) | 25.1 µM (active) |  |
| CCCCn1c(CCCNC(=O)c2ccco2)nc2ccccc21 | > 150 µM (not active) | > 150 µM (not active) | > 150 µM (not active) |  |  |  |  |
| Fc1ccc(C2=CC(c3ccco3)n3ncnc3N2)cc1 (configuration not stated) |  |  |  |  |  |  | EC50 [9]: 12.8 µM (active); EC50 [10]: 14.7 µM (active) |
